Read-outs that look alike come from different tables or passages of the source.
How the values were obtained:
[1] = test system: HCV genotype 1b replicon; assay: HCV replicon assay, genotype 1b replicon EC50; assay type: cell-based, Hepatitis C virus; settings: genotype 1b replicon, read-out: EC50 [gt-1b]
How it was run: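 Potency comes from a four-parameter fit of signal as percent of DMSO control. Replicon-bearing cells were treated 24-48 hours with a compound dilution series in absence of G418, and replicon RNA was quantified normalized to cyclophilin A RNA, or luciferase read.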

[2] = target: HCV NS3/4A protease genotype 1b (Hepatitis C virus genotype 1b, UniProt P26663); assay: HCV NS3/4A protease time-resolved fluorescence (TRF) assay, Ki against genotype 1b; assay type: biochemical; settings: IC50 [gt-1b] (nM), NS3/4A genotype 1b, enzyme 0.2 nM
How it was run: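 First, protease (genotype 1b 0.2 nM, A156T 0.4 nM, genotype 3a 0.025 nM) is preincubated 30 min with inhibitor. Next, 25 nM TRF substrate starts the reaction, run 2.5 h at room temperature. Finally, europium fluorescence is read and Ki calculated from IC50.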

Row | Structure (SMILES) | EC50 ([1]; Hepatitis C virus) | IC50 [2] | EC50 [1]
1 | Cc1nc2ccccc2c2c1O[C@]1(CC2O)C[C@H]2C(=O)N[C@]3(C(=O)NS(=O)(=O)C4(C)CC4)C[C@H]3/C=C\CCCCC[C@H](NC(=O)OC(C)C)C(=O)N2C1 (stereo partly drawn) [Example 119, propan-2-yl [(2S,6S,12Z,14aR,16aS)-1′-hydroxy-5′-methyl-14a-{[(1-methylcyclopropyl)sulfonyl]carbamoyl}-5,16-dioxo-1,1′,2′,5,6,7,8,9,10,11,13a,14,14a,15,16,16a-hexadecahydrospiro[cyclopropa[e]pyrrolo[1,2-a][1,4]diazacyclopentadecine-2,3′-pyrano[2,3-c]quinolin]-6-yl]carbamate] | ~78.5 nM | 0.031 nM | –
2 | Cc1nc2ccccc2c2c1O[C@]1(CC2O)C[C@H]2C(=O)N[C@]3(C(=O)NS(=O)(=O)C4(C)CC4)C[C@H]3/C=C\CCCCC[C@H](NC(=O)OC(C)(C)C)C(=O)N2C1 (stereo partly drawn) [Example 120, tert-butyl [(2S,6S,12Z,13aS,14aR,16aS)-1′-hydroxy-5′-methyl-14a-{[(1-methylcyclopropyl)sulfonyl]carbamoyl}-5,16-dioxo-1,1′,2′,5,6,7,8,9,10,11,13a,14,14a,15,16,16a-hexadecahydrospiro[cyclopropa[e]pyrrolo[1,2-a][1,4]diazacyclopentadecine-2,3′-pyrano[2,3-c]quinolin]-6-yl]carbamate] | – | 0.032 nM | 19 nM
3 | Cc1nc2ccccc2c2c1O[C@]1(CC2)C[C@H]2C(=O)N[C@]3(C(=O)NS(=O)(=O)C4(C)CC4)C[C@H]3/C=C\CCCCC[C@H](NC(=O)OCC(F)F)C(=O)N2C1 [Example 121, 2,2-difluoroethyl [(2R,6S,12Z,13aS,14aR,16aS)-5′-methyl-14a-{[(1-methylcyclopropyl)sulfonyl]carbamoyl}-5,16-dioxo-1,1′,2′,5,6,7,8,9,10,11,13a,14,14a,15,16,16a-hexadecahydrospiro[cyclopropa[e]pyrrolo[1,2-a][1,4]diazacyclopentadecine-2,3′-pyrano[2,3-c]quinolin]-6-yl]carbamate] | 6.46 nM | 0.025 nM | –
4 | Cc1nc2ccc(OC(F)(F)F)cc2c2c1O[C@]1(CC2)C[C@H]2C(=O)N[C@]3(C(=O)NS(=O)(=O)C4(C)CC4)C[C@H]3/C=C\CCCCC[C@H](NC(=O)OC3(C)CC3)C(=O)N2C1 [Example 122, 1-methylcyclopropyl [(2R,6S,12Z,13aS,14aR,16aS)-5′-methyl-14a-{[(1-methylcyclopropyl)sulfonyl]carbamoyl}-5,16-dioxo-9′-(trifluoromethoxy)-1,1′,2′,5,6,7,8,9,10,11,13a,14,14a,15,16,16a-hexadecahydrospiro[cyclopropa[e]pyrrolo[1,2-a][1,4]diazacyclopentadecine-2,3′-pyrano[2,3-c]quinolin]-6-yl]carbamate] | 1.98 nM | 0.019 nM | –
5 | Cc1nc2ccc(OC(F)(F)F)cc2c2c1O[C@]1(CC2)C[C@H]2C(=O)N[C@]3(C(=O)NS(=O)(=O)C4(C)CC4)C[C@H]3/C=C\CCCCC[C@H](NC(=O)OC(C)C)C(=O)N2C1 [Example 123, propan-2-yl [(2R,6S,12Z,13aS,14aR,16aS)-5′-methyl-14a-{[(1-methylcyclopropyl)sulfonyl]carbamoyl}-5,16-dioxo-9′-(trifluoromethoxy)-1,1′,2′,5,6,7,8,9,10,11,13a,14,14a,15,16,16a-hexadecahydrospiro[cyclopropa[e]pyrrolo[1,2-a][1,4]diazacyclopentadecine-2,3′-pyrano[2,3-c]quinolin]-6-yl]carbamate] | 2.07 nM | 0.017 nM | –
6 | Cc1nc2ccc(OC(F)(F)F)cc2c2c1O[C@]1(CC2)C[C@H]2C(=O)N[C@]3(C(=O)NS(=O)(=O)C4(C)CC4)C[C@H]3/C=C\CCCCC[C@H](NC(=O)OCC(C)C)C(=O)N2C1 [Example 124, 2-methylpropyl [(2R,6S,12Z,13aS,14aR,16aS)-5′-methyl-14a-{[(1-methylcyclopropyl)sulfonyl]carbamoyl}-5,16-dioxo-9′-(trifluoromethoxy)-1,1′,2′,5,6,7,8,9,10,11,13a,14,14a,15,16,16a-hexadecahydrospiro[cyclopropa[e]pyrrolo[1,2-a][1,4]diazacyclopentadecine-2,3′-pyrano[2,3-c]quinolin]-6-yl]carbamate] | 2.49 nM | 0.016 nM | –

From patent publication US8987195B2 (priority 2012, dated 2015)
